# From patent publication US8119750B2, “Explosion taming surfactants for the production of perfluoropolymers” (3M Innovative Properties Company, priority 2006, dated 2012)
# Marks after values point to notes of the source that are not given here.
# Assay: Determination of bio-accumulation: urinary clearance pharmacokinetic study in rats
# Conditions: male Sprague Dawley rats, 73 micro Moles per kg oral gavage, urine by fluorine NMR, exponential least squares curve fitting
row,Compound,T ½ (h) (renal half-life)
1,"N.O=C(O)C(F)(F)C(F)OC(F)(F)C(F)(F)C(F)(F)OC(F)(F)F (stereo not drawn) [Compound 1, CF3—O—CF2—CF2—CF2—O—CHF—CF2—COONH4]",12
2,"N.O=C(O)C(F)OC(F)(F)C(F)(F)C(F)(F)OC(F)(F)F (stereo not drawn) [Compound 2, CF3—O—CF2—CF2—CF2—O—CHF—COONH4]",11
3,"N.O=C(O)C(F)(F)C(F)OC(F)(F)C(F)(F)C(F)(F)F (stereo not drawn) [Compound 3, C3F7—O—CFH—CF2COONH4]",11
4,"N.O=C(O)C(F)(F)C(F)(F)C(F)(F)C(F)(F)C(F)(F)OC(F)C(F)(F)F (stereo not drawn) [Compound 4, CF3—CFH—O—(CF2)5—COONH4]",24
5,"N.O=C(O)C(F)(F)C(F)(F)C(F)(F)OC(F)C(F)(F)F (stereo not drawn) [Compound 5, CF3—CFH—O—(CF2)3—COONH4]",8
6,"N.O=C(O)C(F)(F)C(F)(F)C(F)(F)C(F)(F)C(F)(F)C(F)(F)C(F)(F)F [Compound C-1, C7F15COONH4, reference compound]",~550
7,"N.O=C(O)C(F)(F)OC(F)(F)C(F)(F)C(F)(F)OC(F)(F)F [Compound C-2, CF3—O—(CF2)3—O—CF2—COONH4, reference compound]",10
8,"N.O=C(O)C(F)(F)C(F)(F)OC(F)(F)C(F)(F)C(F)(F)C(F)(F)F [Compound C-3, C4F9—O—CF2—CF2—COONH4, reference compound]",31

# Same assay, conditions: male Sprague Dawley rats, 73 micro Moles per kg oral gavage; no parent compound observed in the urine
row,Compound,"T ½ (h) (renal half-life), based on elimination of the major metabolite C3F7—O—CHFCOO−"
1,"N.O=C(O)COC(F)(F)C(F)OC(F)(F)C(F)(F)C(F)(F)F (stereo not drawn) [Compound 6, C3F7—O—CFH—CF2—O—CH2—COONH4]",13* h
